{"source": "paper PMC6268294", "about": "“Synthesis of Chalcones with Anticancer Activities” (Molecules, 2012)", "key": {"[1]": {"test_system": "human lung adenocarcinoma cell line A549", "assay": "MTT cell viability assay, A549", "format": "cell-based", "details": "24 h treatment", "protocol": "(§1) A549, PC3, MCF-7, HT-29, WRL68 and MCF-7 cells were obtained from the ATTC (Rockville, MD, USA) and grown in RPMI-1640 medium, 10% fetal bovine serum (FBS) and 1% pen-strep, in humidified conditions at 5% CO2 and 37 °C. The different cell lines mentioned above were used to determine the inhibitory effects of compounds on cell growth using the MTT assay. This colorimetric assay is based on the conversion of the yellow tetrazolium bromide (MTT) to a purple formazan derivative by mitochondrial succinate dehydrogenase in viable cells. Cells were seeded in 96-well plate and incubated for 24 h at 37 °C with 5% CO2 saturation. After incubation, the cells were treated with different concentration of compounds and incubated for another 24 h. After 24 h of drug treatment, 20 µL of MTT solution at 5 mg/mL was added and incubated for 4 h. Dimethyl sulfoxide (DMSO) in volume of 100 µL is added into each well to dissolve the purple formazan formed. The colorimetric assay is measured and recorded at absorbance of 570 nm."}, "[2]": {"test_system": "human prostate cancer cell line PC3", "assay": "MTT cell viability assay, PC3", "format": "cell-based", "details": "24 h treatment", "protocol": "as §1"}, "[3]": {"test_system": "human breast adenocarcinoma cell line MCF-7", "assay": "MTT cell viability assay, MCF-7", "format": "cell-based", "details": "MCF7, 24 h treatment", "protocol": "as §1"}, "[4]": {"test_system": "human adenocarcinoma cell line HT-29 (colorectal cancer)", "assay": "MTT cell viability assay, HT-29", "format": "cell-based", "details": "24 h treatment", "protocol": "as §1"}, "[5]": {"test_system": "human normal liver cell line WRL-68", "assay": "MTT cell viability assay, WRL68", "format": "cell-based", "details": "24 h treatment", "protocol": "as §1"}, "[6]": {"test_system": "MCF-7 (breast), A549 (lung), PC3 (prostate), HT-29 (colorectal) and WRL68 (liver)", "assay": "MTT assay, summary over all five cell lines", "format": "cell-based, human", "details": "for IC50: Homo sapiens", "protocol": "as §1"}, "[7]": {"details": "all cell lines except for the A549 cell line, MTT, read-out: IC50 in all cell lines except A549"}}, "note": "Where two headings read alike, the source gives them in different places.", "data": [{"smiles": "O=C(/C=C/c1ccccc1)c1ccc(O)cc1", "note": "[Compound 2, 1-(4-Hydroxyphenyl)-3-phenylpropenone]", "values": [{"measurement": "IC50", "setting": "[1]", "result": "> 100", "unit": "µg/mL"}, {"measurement": "IC50", "setting": "[2]", "result": "> 100", "unit": "µg/mL"}, {"measurement": "IC50", "setting": "[3]", "result": "> 100", "unit": "µg/mL"}, {"measurement": "IC50", "setting": "[4]", "result": "> 100", "unit": "µg/mL"}, {"measurement": "IC50", "setting": "[5]", "result": "> 100", "unit": "µg/mL"}, {"measurement": "cytotoxic effect in words", "setting": "[6]; all cell lines, MTT", "result": "low cytotoxic effects"}]}, {"smiles": "Cc1ccc(C(=O)/C=C/c2ccccc2)cc1", "note": "[Compound 3, 3-Phenyl-1-p-tolylpropenone]", "values": [{"measurement": "IC50", "setting": "[1]", "result": "36.6 ± 1.76", "unit": "µg/mL"}, {"measurement": "IC50", "setting": "[2]", "result": "17.3 ± 1.1", "unit": "µg/mL"}, {"measurement": "IC50", "setting": "[3]", "result": "13.6 ± 1.01", "unit": "µg/mL"}, {"measurement": "IC50", "setting": "[4]", "result": "19.1 ± 1", "unit": "µg/mL"}, {"measurement": "IC50", "setting": "[5]", "result": "21.3 ± 3.01", "unit": "µg/mL"}]}, {"smiles": "COc1ccc(C(=O)/C=C/c2ccccc2)cc1", "note": "[Compound 4, 1-(4-Methoxyphenyl)-3-phenylpropenone]", "values": [{"measurement": "IC50", "setting": "[1]", "result": "77 ± 2.1", "unit": "µg/mL"}, {"measurement": "IC50", "setting": "[2]", "result": "21.1 ± 1.24", "unit": "µg/mL"}, {"measurement": "IC50", "setting": "[3]", "result": "19.1 ± 1", "unit": "µg/mL"}, {"measurement": "IC50", "setting": "[4]", "result": "37.3 ± 2.81", "unit": "µg/mL"}, {"measurement": "IC50", "setting": "[5]", "result": "57.3 ± 3.8", "unit": "µg/mL"}]}, {"smiles": "O=C(/C=C/c1ccccc1Cl)c1ccc(O)cc1", "note": "[Compound 6, 3-(2-Chlorophenyl)-(4-hydroxyphenyl)-propenone]", "values": [{"measurement": "IC50", "setting": "[1]", "result": "25.2 ± 1.21", "unit": "µg/mL"}, {"measurement": "IC50", "setting": "[2]", "result": "11 ± 1.8", "unit": "µg/mL"}, {"measurement": "IC50", "setting": "[3]", "result": "10 ± 1.4", "unit": "µg/mL"}, {"measurement": "IC50", "setting": "[4]", "result": 15.5, "unit": "µg/mL"}, {"measurement": "IC50", "setting": "[5]", "result": "13.2 ± 1.3", "unit": "µg/mL"}]}, {"smiles": "Cc1ccc(C(=O)/C=C/c2ccccc2Cl)cc1", "note": "[Compound 7, 3-(2-Chlorophenyl)-1-P-tolylpropenone]", "values": [{"measurement": "IC50", "setting": "[1]", "result": "> 100", "unit": "µg/mL"}, {"measurement": "IC50", "setting": "[2]", "result": "> 100", "unit": "µg/mL"}, {"measurement": "IC50", "setting": "[3]", "result": "> 100", "unit": "µg/mL"}, {"measurement": "IC50", "setting": "[4]", "result": "> 100", "unit": "µg/mL"}, {"measurement": "IC50", "setting": "[5]", "result": "> 100", "unit": "µg/mL"}, {"measurement": "cytotoxic effect in words", "setting": "[6]", "result": "low cytotoxic effects"}, {"measurement": "melting point", "result": "50 to 51", "unit": "°C"}]}, {"smiles": "COc1ccc(C(=O)/C=C/c2ccccc2Cl)cc1", "note": "[Compound 8, 3-(2-Chlorophenyl)-1-(4-methoxy-phenyl)propenone]", "values": [{"measurement": "IC50", "setting": "[1]", "result": "> 100", "unit": "µg/mL"}, {"measurement": "IC50", "setting": "[2]", "result": "> 100", "unit": "µg/mL"}, {"measurement": "IC50", "setting": "[3]", "result": "> 100", "unit": "µg/mL"}, {"measurement": "IC50", "setting": "[4]", "result": "> 100", "unit": "µg/mL"}, {"measurement": "IC50", "setting": "[5]", "result": "> 100", "unit": "µg/mL"}, {"measurement": "cytotoxic effect in words", "setting": "[6]", "result": "low cytotoxic effects"}]}, {"smiles": "Cc1cccc(/C=C/C(=O)c2ccccc2)c1", "note": "[Compound 9, 1-Phenyl-3-m-tolylpropenone]", "values": [{"measurement": "IC50", "setting": "[1]", "result": "24.7 ± 2", "unit": "µg/mL"}, {"measurement": "IC50", "setting": "[2]", "result": "9.4 ± 1.9", "unit": "µg/mL"}, {"measurement": "IC50", "setting": "[3]", "result": "9.34 ± 0.56", "unit": "µg/mL"}, {"measurement": "IC50", "setting": "[4]", "result": "19 ± 1.5", "unit": "µg/mL"}, {"measurement": "IC50", "setting": "[5]", "result": "9.78 ± 1.01", "unit": "µg/mL"}, {"measurement": "melting point", "result": "68 to 70", "unit": "°C"}]}, {"smiles": "Cc1cccc(/C=C/C(=O)c2ccc(O)cc2)c1", "note": "[Compound 10, 1-(4-Hydroxyphenyl)-3-m-tolylpropenone]", "values": [{"measurement": "IC50", "setting": "[1]", "result": "19.7 ± 1.22", "unit": "µg/mL"}, {"measurement": "IC50", "setting": "[2]", "result": "13.7 ± 1.1", "unit": "µg/mL"}, {"measurement": "IC50", "setting": "[3]", "result": "8.34 ± 0.472", "unit": "µg/mL"}, {"measurement": "IC50", "setting": "[4]", "result": "12.1 ± 3", "unit": "µg/mL"}, {"measurement": "IC50", "setting": "[5]", "result": "13.4 ± 2.09", "unit": "µg/mL"}, {"measurement": "cytotoxic effect in words", "setting": "[6]", "result": "high cytotoxicity"}, {"measurement": "IC50", "setting": "[6]; all five cell lines, MTT, read-out: IC50 in all cell lines", "result": "< 20", "unit": "µg/mL"}]}, {"smiles": "Cc1ccc(C(=O)/C=C/c2cccc(C)c2)cc1", "note": "[Compound 11, 3-m-Tolyl-1-p-tolylpropenone]", "values": [{"measurement": "IC50", "setting": "[1]", "result": "24.9 ± 1.9", "unit": "µg/mL"}, {"measurement": "IC50", "setting": "[2]", "result": "8.73 ± 0.21", "unit": "µg/mL"}, {"measurement": "IC50", "setting": "[3]", "result": "10.2 ± 1.89", "unit": "µg/mL"}, {"measurement": "IC50", "setting": "[4]", "result": "16.3 ± 1.9", "unit": "µg/mL"}, {"measurement": "IC50", "setting": "[5]", "result": "13.9 ± 1.3", "unit": "µg/mL"}, {"measurement": "IC50", "setting": "[6]; [7]", "result": "< 20", "unit": "µg/mL"}]}, {"smiles": "COc1ccc(C(=O)/C=C/c2cccc(C)c2)cc1", "note": "[Compound 12, 1-(4-Methoxyphenyl)-3-m-tolylpropenone]", "values": [{"measurement": "IC50", "setting": "[1]", "result": "31.8 ± 1.5", "unit": "µg/mL"}, {"measurement": "IC50", "setting": "[2]", "result": "9.87 ± 0.71", "unit": "µg/mL"}, {"measurement": "IC50", "setting": "[3]", "result": "9.53 ± 1.99", "unit": "µg/mL"}, {"measurement": "IC50", "setting": "[4]", "result": "15.8 ± 2.1", "unit": "µg/mL"}, {"measurement": "IC50", "setting": "[5]", "result": "11.1 ± 1.8", "unit": "µg/mL"}, {"measurement": "IC50", "setting": "[6]; [7]", "result": "< 20", "unit": "µg/mL"}, {"measurement": "melting point", "result": "74 to 75", "unit": "°C"}]}, {"smiles": "COc1ccc(/C=C/C(=O)c2ccccc2)cc1", "note": "[Compound 13, 3-(4-Methoxyphenyl)-1-phenylpropenone]", "values": [{"measurement": "IC50", "setting": "[1]", "result": "32.6 ± 2.5", "unit": "µg/mL"}, {"measurement": "IC50", "setting": "[2]", "result": "12.1 ± 0.99", "unit": "µg/mL"}, {"measurement": "IC50", "setting": "[3]", "result": "11.62 ± 0.101", "unit": "µg/mL"}, {"measurement": "IC50", "setting": "[4]", "result": "22.8 ± 2.3", "unit": "µg/mL"}, {"measurement": "IC50", "setting": "[5]", "result": "21.5 ± 1.7", "unit": "µg/mL"}]}]}
